Target: T1, human MC2R (Homo sapiens, UniProt Q01718)
T1 construct: host or cells: GeneBLAzer MC2R-CRE-bla CHO-K1 cells
Assay: Measurement of human MC2R inhibitory activity using intracellular cAMP concentration as an indicator
Type: cell-based
Details: test compound at 1 µM; GeneBLAzer MC2R-CRE-bla CHO-K1 cells; ACTH (Human 1-24) final concentration 3 pM; intracellular cAMP by HTRF; read-out: MC2R inhibition rate (% of inhibition)
Method: Experimental Example 1: Measurement of human MC2R inhibitory activity using intracellular cAMP concentration as an indicator
GeneBLAzer MC2R-CRE-bla CHO-K1 cells (Thermo Fisher Scientific) that had been cryopreserved in advance were thawed and suspended in a medium [Dulbecco's Modified Eagle Medium (Thermo Fisher Scientific) containing fetal bovine serum (10% (v/v), HyClone Laboratories), Non-Essential Amino Acids Solution (1/100 (w/w), Thermo Fisher Scientific), HEPES (25 mM, Thermo Fisher Scientific), Penicillin/Streptomycin (1/100 (w/w), Fujifilm Wako)]. After centrifuging the cell suspension, the supernatant was removed, the cells were suspended in D-PBS(-) (Fujifilm Wako), and the supernatant was removed again after centrifugation. The cells were resuspended in an assay buffer [Hank's Balanced Salt Solution (Thermo Fisher Scientific) containing HEPES pH 7.5 (10 mM, Thermo Fisher Scientific), fatty acid-free bovine serum albumin (0.01% (w/v), Sigma), IBMX (500 µM, Fujifilm Wako)] and added to a 384-well white plate (Greiner) at 1,500 cells/well. Then, the test compound prepared using the assay buffer was added, and after standing for 20 min, an assay buffer containing ACTH (Human 1-24) (Peptide Institute) was added (ACTH final concentration, 3 pM). After standing at room temperature for 30 min, the intracellular cAMP level was measured using cAMP Gs HiRange kit HTRF (PerkinElmer). The inhibition rate (%) of the compound against MC2R was calculated using the following formula. Inhibition rate (%) = […] [formula] • A: cAMP concentration calculated from wells containing 3 pM ACTH (1-24) • B: cAMP concentration calculated from wells without addition of 3 pM ACTH (1-24) • C: cAMP concentration calculated from wells containing 3 pM ACTH (1-24) and test compound at concentration determined in advance

T1 sequence (Q01718 whole entry): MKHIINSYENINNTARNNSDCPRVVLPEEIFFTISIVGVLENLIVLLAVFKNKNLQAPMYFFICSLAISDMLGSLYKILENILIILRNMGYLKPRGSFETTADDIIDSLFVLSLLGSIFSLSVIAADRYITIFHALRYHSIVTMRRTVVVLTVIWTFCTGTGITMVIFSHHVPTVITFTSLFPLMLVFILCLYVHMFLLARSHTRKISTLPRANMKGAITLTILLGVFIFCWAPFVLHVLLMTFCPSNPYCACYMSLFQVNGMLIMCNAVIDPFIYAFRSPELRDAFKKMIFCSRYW
T1 sequence (Q8TCY5 whole entry partner): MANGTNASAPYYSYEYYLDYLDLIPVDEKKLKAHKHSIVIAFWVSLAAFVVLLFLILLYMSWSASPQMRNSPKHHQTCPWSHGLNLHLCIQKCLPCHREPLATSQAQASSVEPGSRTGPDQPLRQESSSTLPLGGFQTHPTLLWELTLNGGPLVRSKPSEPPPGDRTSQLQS

Row | Compound | inhibition at 1 µM [%]
1 | CCOc1ncccc1-c1ccc(N2CCN3C(=O)N(c4ccc(Cl)cc4C(F)(F)F)CC3C2)c(C=O)n1 (centres unmarked) [Example 1, 3-[2-[4-chloro-2-(trifluoromethyl)phenyl]-3-oxo-5,6,8,8a-tetrahydro-1H-imidazo[1,5-a]pyrazin-7-yl]-6-(2-ethoxypyridin-3-yl)pyridine-2-carbaldehyde] | 100
2 | CCOc1ncccc1-c1ccc(N2CCN3C(=O)N(c4ccc(Cl)cc4C(F)(F)F)CC3C2)c(C(N)=O)n1 (centres unmarked) [Example 2, 3-[2-[4-chloro-2-(trifluoromethyl)phenyl]-3-oxo-5,6,8,8a-tetrahydro-1H-imidazo[1,5-a]pyrazin-7-yl]-6-(2-ethoxypyridin-3-yl)pyridine-2-carboxamide] | 99
3 | CCOc1ncccc1-c1ccc(N2CCN3C(=O)N(C4(C(F)(F)F)CCCC4)CC3C2)c(C(N)=O)n1 (centres unmarked) [Example 3, 6-(2-ethoxypyridin-3-yl)-3-[3-oxo-2-[1-(trifluoromethyl)cyclopentyl]-5,6,8,8a-tetrahydro-1H-imidazo[1,5-a]pyrazin-7-yl]pyridine-2-carboxamide] | 81
4 | CCOc1ncccc1-c1ccc(N2CCN3C(=O)N(c4ccc(Cl)cc4C(F)(F)F)CC3C2)c(C(=O)NCCN(C)C)n1 (centres unmarked) [Example 4, 3-[2-[4-chloro-2-(trifluoromethyl)phenyl]-3-oxo-5,6,8,8a-tetrahydro-1H-imidazo[1,5-a]pyrazin-7-yl]-N-[2-(dimethylamino)ethyl]-6-(2-ethoxypyridin-3-yl)pyridine-2-carboxamide] | 100
5 | CCOc1ncccc1-c1ccc(N2CCN3C(=O)N(c4ccc(Cl)cc4C(F)(F)F)C[C@@H]3C2)c(C=O)n1 [Example 5, 3-[(8aS)-2-[4-chloro-2-(trifluoromethyl)phenyl]-3-oxo-5,6,8,8a-tetrahydro-1H-imidazo[1,5-a]pyrazin-7-yl]-6-(2-ethoxypyridin-3-yl)pyridine-2-carbaldehyde] | 100
6 | CCOc1ncccc1-c1ccc(N2CCN3C(=O)N(c4ccc(Cl)cc4C(F)(F)F)C[C@@H]3C2)c(C(=O)NCCN(C)C)n1 [Example 6, 3-[(8aS)-2-[4-chloro-2-(trifluoromethyl)phenyl]-3-oxo-5,6,8,8a-tetrahydro-1H-imidazo[1,5-a]pyrazin-7-yl]-N-[2-(dimethylamino)ethyl]-6-(2-ethoxypyridin-3-yl)pyridine-2-carboxamide] | 100
7 | CCOc1ncccc1-c1ccc(N2CCN3C(=O)N(c4ccc(Cl)cc4C(F)(F)F)C[C@H]3C2)c(C=O)n1 [Example 7, 3-[(8aR)-2-[4-chloro-2-(trifluoromethyl)phenyl]-3-oxo-5,6,8,8a-tetrahydro-1H-imidazo[1,5-a]pyrazin-7-yl]-6-(2-ethoxypyridin-3-yl)pyridine-2-carbaldehyde] | 91
8 | CCOc1ncccc1-c1ccc(N2CCN3C(=O)N(c4ccc(Cl)cc4C(F)(F)F)C[C@H]3C2)c(C(=O)NCCN(C)C)n1 [Example 8, 3-[(8aR)-2-[4-chloro-2-(trifluoromethyl)phenyl]-3-oxo-5,6,8,8a-tetrahydro-1H-imidazo[1,5-a]pyrazin-7-yl]-N-[2-(dimethylamino)ethyl]-6-(2-ethoxypyridin-3-yl)pyridine-2-carboxamide] | 90
9 | CCOc1ncccc1-c1ccc(N2CCN3C(=O)N(c4ccc(Cl)cc4C(F)(F)F)CC3(C)C2)c(C=O)n1 (centres unmarked) [Example 9, 3-[2-[4-chloro-2-(trifluoromethyl)phenyl]-8a-methyl-3-oxo-1,5,6,8-tetrahydroimidazo[1,5-a]pyrazin-7-yl]-6-(2-ethoxypyridin-3-yl)pyridine-2-carbaldehyde] | 99
10 | CCOc1ncccc1-c1ccc(N2C[C@H]3CN(c4ccc(Cl)cc4C(F)(F)F)C(=O)N3C[C@H]2CC)c(C=O)n1 [Example 10, 3-[(6R,8aS)-2-[4-chloro-2-(trifluoromethyl)phenyl]-6-ethyl-3-oxo-5,6,8,8a-tetrahydro-1H-imidazo[1,5-a]pyrazin-7-yl]-6-(2-ethoxypyridin-3-yl)pyridine-2-carbaldehyde] | 100
11 | CCOc1ncccc1-c1ccc(N2CCN3C(=O)N(c4ccc(Cl)cc4C(F)(F)F)C[C@@H]3C2)c(C(=O)NCC2CCOCC2)n1 [Example 11, 3-[(8aS)-2-[4-chloro-2-(trifluoromethyl)phenyl]-3-oxo-5,6,8,8a-tetrahydro-1H-imidazo[1,5-a]pyrazin-7-yl]-6-(2-ethoxypyridin-3-yl)-N-(oxan-4-ylmethyl)pyridine-2-carboxamide] | 97
12 | CCOc1ncccc1-c1ccc(N2CCN3C(=O)N(c4ccc(Cl)cc4C(F)(F)F)C[C@@H]3C2)c(C(=O)NCCOC)n1 [Example 12, 3-[(8aS)-2-[4-chloro-2-(trifluoromethyl)phenyl]-3-oxo-5,6,8,8a-tetrahydro-1H-imidazo[1,5-a]pyrazin-7-yl]-6-(2-ethoxypyridin-3-yl)-N-(2-methoxyethyl)pyridine-2-carboxamide] | 100
13 | CCOc1ncccc1-c1ccc(N2CCN3C(=O)N(c4ccc(Cl)cc4C(F)(F)F)C[C@@H]3C2)c(C(=O)NCCC2CCOCC2)n1 [Example 13, 3-[(8aS)-2-[4-chloro-2-(trifluoromethyl)phenyl]-3-oxo-5,6,8,8a-tetrahydro-1H-imidazo[1,5-a]pyrazin-7-yl]-6-(2-ethoxypyridin-3-yl)-N-[2-(oxan-4-yl)ethyl]pyridine-2-carboxamide] | 99
14 | CCOc1ncccc1-c1ccc(N2CCN3C(=O)N(c4ccc(Cl)cc4C(F)(F)F)C[C@@H]3C2)c(C(=O)NCCCc2ccccn2)n1 [Example 14, 3-[(8aS)-2-[4-chloro-2-(trifluoromethyl)phenyl]-3-oxo-5,6,8,8a-tetrahydro-1H-imidazo[1,5-a]pyrazin-7-yl]-6-(2-ethoxypyridin-3-yl)-N-(3-pyridin-2-ylpropyl)pyridine-2-carboxamide] | 100
15 | CCOc1ncccc1-c1ccc(N2CCN3C(=O)N(c4ccc(Cl)cc4C(F)(F)F)C[C@@H]3C2)c(C(=O)NCC2(O)COC2)n1 [Example 15, 3-[(8aS)-2-[4-chloro-2-(trifluoromethyl)phenyl]-3-oxo-5,6,8,8a-tetrahydro-1H-imidazo[1,5-a]pyrazin-7-yl]-6-(2-ethoxypyridin-3-yl)-N-[(3-hydroxyoxetan-3-yl)methyl]pyridine-2-carboxamide] | 100
16 | CCOc1ncccc1-c1ccc(N2CCN3C(=O)N(c4ccc(Cl)cc4C(F)(F)F)C[C@@H]3C2)c(C(=O)NCC2(O)CC2)n1 [Example 16, 3-[(8aS)-2-[4-chloro-2-(trifluoromethyl)phenyl]-3-oxo-5,6,8,8a-tetrahydro-1H-imidazo[1,5-a]pyrazin-7-yl]-6-(2-ethoxypyridin-3-yl)-N-[(1-hydroxycyclopropyl)methyl]pyridine-2-carboxamide] | 100
17 | CCOc1ncccc1-c1ccc(N2CCN3C(=O)N(c4ccc(Cl)cc4C(F)(F)F)C[C@@H]3C2)c(C(=O)NC2CCN(C(=O)OC(C)(C)C)C2)n1 (stereo partly drawn) [Example 17, tert-butyl 3-[[3-[(8aS)-2-[4-chloro-2-(trifluoromethyl)phenyl]-3-oxo-5,6,8,8a-tetrahydro-1H-imidazo[1,5-a]pyrazin-7-yl]-6-(2-ethoxypyridin-3-yl)pyridine-2-carbonyl]amino]pyrrolidine-1-carboxylate] | 91
18 | CCOc1ncccc1-c1ccc(N2CCN3C(=O)N(c4ccc(Cl)cc4C(F)(F)F)C[C@@H]3C2)c(C(=O)NCCS(C)(=O)=O)n1 [Example 18, 3-[(8aS)-2-[4-chloro-2-(trifluoromethyl)phenyl]-3-oxo-5,6,8,8a-tetrahydro-1H-imidazo[1,5-a]pyrazin-7-yl]-6-(2-ethoxypyridin-3-yl)-N-(2-methylsulfonylethyl)pyridine-2-carboxamide] | 100
19 | CCOc1ncccc1-c1ccc(N2CCN3C(=O)N(c4ccc(Cl)cc4C(F)(F)F)C[C@@H]3C2)c(C(=O)NCCc2ccccn2)n1 [Example 19, 3-[(8aS)-2-[4-chloro-2-(trifluoromethyl)phenyl]-3-oxo-5,6,8,8a-tetrahydro-1H-imidazo[1,5-a]pyrazin-7-yl]-6-(2-ethoxypyridin-3-yl)-N-(2-pyridin-2-ylethyl)pyridine-2-carboxamide] | 100
20 | CCOc1ncccc1-c1ccc(N2CCN3C(=O)N(c4ccc(Cl)cc4C(F)(F)F)C[C@@H]3C2)c(C(=O)NC2CCOC2)n1 (stereo partly drawn) [Example 20, 3-[(8aS)-2-[4-chloro-2-(trifluoromethyl)phenyl]-3-oxo-5,6,8,8a-tetrahydro-1H-imidazo[1,5-a]pyrazin-7-yl]-6-(2-ethoxypyridin-3-yl)-N-(oxolan-3-yl)pyridine-2-carboxamide] | 99

Reference: patent EP4714953A1, “MELANOCORTIN 2-TYPE RECEPTOR ANTAGONIST” (Scohia Pharma, Inc., priority 2023, dated 2024)
